How the values were obtained:
male Sprague Dawley rats = assay: Forced swim test (FST); assay type: in vivo, rat; settings: for percent time spent immobile: 30 min before 5-min test
Experimental: Male Sprague Dawley rats (Charles River Laboratories) weighing 180–200 g on arrival, were used for all behavioral studies, which took place at Melior Discovery (Exton, PA, USA). Rats acclimated to their home cages for at least 1 week before testing, were maintained in a controlled environment on a 12 h light/dark cycle, with no more than 2 rats per cage. Animals received ad libitum access to standard rodent chow and water and were assigned randomly to treatment groups. All animal use and procedures were in accordance with established protocols approved by the Melior IACUC committee, Melior Standard Operation Procedures (SOP), and Transcend Therapeutics. Distinct cohorts of animals were used for each experiment/Figure presented in this manuscript.
Methylone HCl (0.5–30 mg/kg; Cayman Chemical) or Fluoxetine HCl (10 mg/kg; Sigma-Aldrich) were formulated in sterile 0.9% saline vehicle before IP administration. Control animals received saline vehicle. Methylone or saline was administered 30 min prior to FST or OFT testing sessions. Fluoxetine or saline were administered 23.5, 5, and 1 h prior to testing, consistent with previous studies ([19]).
All studies were performed and scored by an experimenter blind to treatment group according to standard protocols at Melior Discovery (Exton, PA, USA) and based on published “modified FST” procedures ([20]). Briefly, rats were placed in a circular plexiglass container (29.2 cm diameter, 49.5 cm height) filled with water to a depth of 30 cm so rats could not support themselves by touching the bottom of the tank. Water was maintained at 22–25°C and was changed for every animal. Day 1 (Training) consisted of a 15 min acclimation trial, and Day 2 (Testing, 24 h later) consisted of the 5 min test. A time sampling procedure was employed where animals were observed every 5 s for the duration of the test session (60 counts or 5 min) and scored for immobility (defined as the failure to struggle), swimming (defined as a circular movement around the tank), or climbing (defined as an upward escape behavior). Data are expressed as the percent time spent immobile, swimming, or climbing for the 5-min testing session (e.g., the number of immobility counts divided by 60). Therefore, to extrapolate these values to time spent immobile in minutes, one can multiply the percent time immobile by 5 min.

serotonin uptake = settings: cited from earlier work

CNC(C)C(=O)c1ccc2c(c1)OCO2 (centres unmarked) [methylone, 3,4-methylenedioxy-N-methylcathinone]
reduced immobility relative to Vehicle controls (male Sprague Dawley rats; after a single dose of methylone): 78–98%
duration of antidepressant-like effect (male Sprague Dawley rats; after a single dose of methylone 15 mg/kg IP): at least 72 h
percent time spent immobile (male Sprague Dawley rats; methylone 5 mg/kg IP, Vehicle 63.9 ± 2.7%): 31.9 ± 4.7%
climbing vs vehicle on retest (male Sprague Dawley rats; methylone 15 mg/kg IP once, 30 min, 24, 72 h, Figure 3D): small but significant effect of methylone on climbing was observed at 30 min only
swimming vs vehicle on retest (male Sprague Dawley rats; methylone 15 mg/kg IP once, 30 min, 24, 72 h, Figure 3F): significantly increasing swimming at all three time points tested
immobility vs vehicle on retest (male Sprague Dawley rats; methylone 15 mg/kg IP once, tested 30 min, 24 and 72 h, Figure 3B): reducing immobility significantly at all-time points
climbing behavior vs controls (male Sprague Dawley rats; methylone 0.5–30 mg/kg IP dose response, 30 min before, Figure 1D): increased only by low to mid doses of methylone (5–10 mg/kg)
percent time spent immobile (male Sprague Dawley rats; methylone 10–15 mg/kg IP, Vehicle 63.9 ± 2.7%): 4.2 ± 1.3%
immobility at highest doses (male Sprague Dawley rats; methylone 20–30 mg/kg, not statistically significant): trend toward less reduction in immobility
climbing compared to vehicle (male Sprague Dawley rats; methylone alone 5 mg/kg IP 30 min before, Figure 6C): significantly increased climbing
% time immobile (male Sprague Dawley rats; methylone alone, 15 mg/kg, Figure 1B, Vehicle 63.9 ± 2.7%): 4.2 ± 1.8%
dose of first significant effect on immobility (male Sprague Dawley rats; methylone dose response): 5 mg/kg
dose of maximal effect on immobility (male Sprague Dawley rats; methylone dose response): 10 mg/kg
swimming behavior vs controls (male Sprague Dawley rats; methylone mid to high doses, 30 min before, Figure 1F): significantly increased
change in immobility vs vehicle control (male Sprague Dawley rats; methylone single low dose 5 mg/kg IP, 30 min before): ~50%
onset of effect (male Sprague Dawley rats; single dose of methylone): ≤ 30 min
reduction of immobility vs. controls (male Sprague Dawley rats; single dose of methylone (5–30 mg/kg) 30 min prior to testing): ~95%
lower potency for inhibition of serotonin uptake vs MDMA (serotonin uptake; compared with MDMA): 3–4 ×
less potent inhibitor of serotonin uptake than MDMA (serotonin uptake; in vitro, compared with MDMA): 3–4 fold
IC50 (serotonin uptake; in vitro, read-out: IC50 for inhibition of serotonin uptake): 5.75 µM
